How the values were obtained:
Assay in all cases: radiometric filter-binding kinase assay, Kinaseprofiler
[1] = biological target: JAK2 JH1 catalytic (human) (UniProt O60674); conditions: compound 10.0 µM; ATP 45 µM
PRKCA (human) = PRKCA (human) (UniProt P17252); conditions: compound 10.0 µM; ATP 45 µM
[2] = test system: HIPK2 (human), Q9H2X6 [I471N]; conditions: compound 10.0 µM; ATP 10 µM
MELK (human) = MELK (human) (UniProt Q14680); conditions: compound 10.0 µM; ATP 45 µM
PIM2 (human) = PIM2 (human) (UniProt Q9P1W9); conditions: compound 10.0 µM; ATP 15 µM
MAP3K9 (human) = MAP3K9 (human) (UniProt P80192); conditions: compound 10.0 µM; ATP 45 µM
MKNK2 (human) = MKNK2 (human) (UniProt Q9HBH9); conditions: ATP 120 µM
MARK2 (human) = MARK2 (human) (UniProt Q7KZI7); conditions: compound 10.0 µM; ATP 15 µM
TBK1 (human) = TBK1 (human) (UniProt Q9UHD2); conditions: compound 1.0 µM; ATP 155 µM
PRKD2 (human) = PRKD2 (human) (UniProt Q9BZL6); conditions: compound 10.0 µM; ATP 155 µM
STK33 (human) = STK33 (human) (UniProt Q9BYT3); conditions: compound 10.0 µM; ATP 155 µM
MAPK3 (human) = MAPK3 (human) (UniProt P27361); conditions: compound 10.0 µM; ATP 70 µM
CDK1 CCNB1 (human) = CDK1 CCNB1 (human) (UniProt P06493+P14635); conditions: compound 10.0 µM; ATP 45 µM
EPHA1 (human) = EPHA1 (human) (UniProt P21709); conditions: compound 10.0 µM; ATP 45 µM
RPS6KA2 KD1 KD2 (human) = RPS6KA2 KD1 KD2 (human) (UniProt Q15349); conditions: compound 1.0 µM; ATP 10 µM
STK24 (human) = STK24 (human) (UniProt Q9Y6E0); conditions: compound 10.0 µM; ATP 15 µM
MTOR FKBP1A (human) = MTOR FKBP1A (human) (UniProt P42345+P62942); conditions: ATP 45 µM
TLK2 (human) = TLK2 (human) (UniProt Q86UE8); conditions: compound 10.0 µM; ATP 10 µM
MAPK10 (human) = MAPK10 (human) (UniProt P53779); conditions: ATP 10 µM
GCK (human) = GCK (human) (UniProt Q12851); conditions: compound 1.0 µM; ATP 200 µM
[3] = test system: BLK (human), P51451 [M278V]; conditions: compound 10.0 µM; ATP 45 µM
TSSK1B (human) = TSSK1B (human) (UniProt Q9BXA7); conditions: ATP 15 µM
FYN (human) = FYN (human) (UniProt P06241); conditions: compound 10.0 µM; ATP 70 µM
PAK4 (human) = PAK4 (human) (UniProt O96013); conditions: compound 10.0 µM; ATP 10 µM
DYRK2 (human) = DYRK2 (human) (UniProt Q92630); conditions: compound 10.0 µM; ATP 15 µM
MINK1 (human) = MINK1 (human) (UniProt Q8N4C8); conditions: compound 1.0 µM; ATP 185 µM
[4] = biological target: JAK3 JH1 catalytic (human) (UniProt P52333); conditions: ATP 10 µM
CDK7 CCNH MNAT1 (human) = CDK7 CCNH MNAT1 (human) (UniProt P50613+P51948+P51946); conditions: ATP 90 µM
CDK2 CCNE1 (human) = CDK2 CCNE1 (human) (UniProt P24941+P24864); conditions: ATP 120 µM
FER (human) = FER (human) (UniProt P16591); conditions: compound 10.0 µM; ATP 70 µM
ACVR1B (human) = ACVR1B (human) (UniProt P36896); conditions: compound 10.0 µM; ATP 10 µM
CAMK1D (human) = CAMK1D (human) (UniProt Q8IU85); conditions: compound 10.0 µM; ATP 15 µM
BTK (human) = BTK (human) (UniProt Q06187); conditions: ATP 200 µM
AURKB (human) = AURKB (human) (UniProt Q96GD4); conditions: ATP 10 µM
HIPK3 (human) = HIPK3 (human) (UniProt Q9H422); conditions: compound 10.0 µM; ATP 15 µM
INSR (human) = INSR (human) (UniProt P06213); conditions: compound 10.0 µM; ATP 45 µM

Sequence of BTK (human) (Q06187 whole entry, looked up): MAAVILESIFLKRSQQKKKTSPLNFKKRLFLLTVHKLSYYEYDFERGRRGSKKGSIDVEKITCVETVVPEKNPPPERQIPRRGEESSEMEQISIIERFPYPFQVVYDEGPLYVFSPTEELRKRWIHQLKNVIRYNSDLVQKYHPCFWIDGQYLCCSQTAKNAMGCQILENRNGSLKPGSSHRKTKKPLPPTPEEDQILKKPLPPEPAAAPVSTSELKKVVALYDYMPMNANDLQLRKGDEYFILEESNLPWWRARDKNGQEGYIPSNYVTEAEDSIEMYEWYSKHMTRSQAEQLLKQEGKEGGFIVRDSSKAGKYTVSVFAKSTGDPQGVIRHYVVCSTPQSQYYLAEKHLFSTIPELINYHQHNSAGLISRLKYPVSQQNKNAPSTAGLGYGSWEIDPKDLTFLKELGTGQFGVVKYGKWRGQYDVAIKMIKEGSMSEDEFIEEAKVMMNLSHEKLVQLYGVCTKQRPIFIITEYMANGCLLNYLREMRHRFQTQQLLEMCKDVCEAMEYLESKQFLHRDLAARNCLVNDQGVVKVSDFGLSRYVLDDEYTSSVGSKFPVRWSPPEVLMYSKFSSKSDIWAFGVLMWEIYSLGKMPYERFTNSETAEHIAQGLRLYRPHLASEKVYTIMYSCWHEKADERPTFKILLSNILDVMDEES
Sequence of MTOR FKBP1A (human) (P62942 whole entry, looked up, other chains not shown): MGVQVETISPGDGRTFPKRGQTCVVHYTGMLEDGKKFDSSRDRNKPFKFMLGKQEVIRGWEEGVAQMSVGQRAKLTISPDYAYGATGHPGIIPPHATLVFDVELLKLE
Sequence of MAPK10 (human) (P53779 whole entry, looked up): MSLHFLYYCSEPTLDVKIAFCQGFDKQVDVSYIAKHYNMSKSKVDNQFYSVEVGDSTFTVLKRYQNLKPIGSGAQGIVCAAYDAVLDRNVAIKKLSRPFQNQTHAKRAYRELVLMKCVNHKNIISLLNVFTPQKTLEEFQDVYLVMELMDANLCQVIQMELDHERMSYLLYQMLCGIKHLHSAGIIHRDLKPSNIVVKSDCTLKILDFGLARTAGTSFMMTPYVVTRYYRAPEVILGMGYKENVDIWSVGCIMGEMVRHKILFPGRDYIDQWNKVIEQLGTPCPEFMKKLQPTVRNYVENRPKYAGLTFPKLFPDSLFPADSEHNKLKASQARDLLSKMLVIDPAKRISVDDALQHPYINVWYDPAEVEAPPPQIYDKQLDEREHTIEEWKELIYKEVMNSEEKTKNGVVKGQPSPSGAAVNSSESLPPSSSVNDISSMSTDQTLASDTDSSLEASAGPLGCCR
Sequence of JAK3 JH1 catalytic (human) (P52333 whole entry, looked up): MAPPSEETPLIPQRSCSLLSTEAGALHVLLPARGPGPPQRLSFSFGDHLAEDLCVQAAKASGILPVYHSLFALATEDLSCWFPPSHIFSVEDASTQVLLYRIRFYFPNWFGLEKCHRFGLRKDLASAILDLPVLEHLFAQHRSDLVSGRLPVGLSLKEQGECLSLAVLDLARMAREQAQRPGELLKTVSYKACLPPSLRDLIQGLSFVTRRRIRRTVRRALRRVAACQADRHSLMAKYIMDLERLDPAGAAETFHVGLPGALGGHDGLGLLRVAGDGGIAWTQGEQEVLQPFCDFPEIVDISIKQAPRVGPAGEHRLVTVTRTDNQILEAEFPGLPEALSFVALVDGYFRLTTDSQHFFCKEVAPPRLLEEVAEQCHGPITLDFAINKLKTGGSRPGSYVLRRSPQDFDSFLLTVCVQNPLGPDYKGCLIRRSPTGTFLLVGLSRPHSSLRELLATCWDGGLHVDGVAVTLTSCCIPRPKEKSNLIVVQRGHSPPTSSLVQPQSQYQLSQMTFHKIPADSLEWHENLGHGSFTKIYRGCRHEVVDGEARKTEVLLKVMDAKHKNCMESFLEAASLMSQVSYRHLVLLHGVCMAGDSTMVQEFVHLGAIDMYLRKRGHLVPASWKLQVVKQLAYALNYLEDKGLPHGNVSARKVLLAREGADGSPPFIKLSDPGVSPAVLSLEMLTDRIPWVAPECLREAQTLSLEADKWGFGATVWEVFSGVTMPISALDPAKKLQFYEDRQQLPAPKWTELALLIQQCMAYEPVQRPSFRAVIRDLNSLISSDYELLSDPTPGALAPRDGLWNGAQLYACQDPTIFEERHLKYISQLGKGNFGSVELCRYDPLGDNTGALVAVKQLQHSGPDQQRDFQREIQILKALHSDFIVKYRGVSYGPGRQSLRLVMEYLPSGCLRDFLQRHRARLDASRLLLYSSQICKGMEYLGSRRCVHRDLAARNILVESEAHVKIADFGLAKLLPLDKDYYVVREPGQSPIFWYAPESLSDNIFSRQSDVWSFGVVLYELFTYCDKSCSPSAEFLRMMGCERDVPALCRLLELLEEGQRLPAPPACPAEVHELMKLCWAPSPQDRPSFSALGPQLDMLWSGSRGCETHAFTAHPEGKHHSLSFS
Sequence of MKNK2 (human) (Q9HBH9 whole entry, looked up): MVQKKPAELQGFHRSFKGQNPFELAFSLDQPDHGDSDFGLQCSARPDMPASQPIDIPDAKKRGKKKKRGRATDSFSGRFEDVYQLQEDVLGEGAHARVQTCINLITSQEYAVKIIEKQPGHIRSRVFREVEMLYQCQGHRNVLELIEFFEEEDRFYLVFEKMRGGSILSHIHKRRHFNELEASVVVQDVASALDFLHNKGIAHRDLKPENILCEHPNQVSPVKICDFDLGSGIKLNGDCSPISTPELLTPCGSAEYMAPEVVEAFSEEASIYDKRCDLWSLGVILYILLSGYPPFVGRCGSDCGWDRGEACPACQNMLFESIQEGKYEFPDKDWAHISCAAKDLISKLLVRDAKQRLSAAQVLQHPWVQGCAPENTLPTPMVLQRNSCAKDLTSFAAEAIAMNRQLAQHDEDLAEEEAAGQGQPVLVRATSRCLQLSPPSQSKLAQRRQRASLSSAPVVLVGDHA
Sequence of CDK7 CCNH MNAT1 (human) (P50613 whole entry, looked up): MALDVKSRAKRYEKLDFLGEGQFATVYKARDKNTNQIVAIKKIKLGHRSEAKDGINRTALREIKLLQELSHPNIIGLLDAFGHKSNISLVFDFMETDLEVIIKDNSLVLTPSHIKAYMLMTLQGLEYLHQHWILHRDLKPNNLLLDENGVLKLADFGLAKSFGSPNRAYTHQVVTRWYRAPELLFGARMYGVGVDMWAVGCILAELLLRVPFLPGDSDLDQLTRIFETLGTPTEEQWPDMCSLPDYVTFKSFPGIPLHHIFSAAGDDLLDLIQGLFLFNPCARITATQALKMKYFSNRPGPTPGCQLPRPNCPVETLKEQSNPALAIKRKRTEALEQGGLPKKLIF
Sequence of CDK7 CCNH MNAT1 (human) (P51946 whole entry, looked up): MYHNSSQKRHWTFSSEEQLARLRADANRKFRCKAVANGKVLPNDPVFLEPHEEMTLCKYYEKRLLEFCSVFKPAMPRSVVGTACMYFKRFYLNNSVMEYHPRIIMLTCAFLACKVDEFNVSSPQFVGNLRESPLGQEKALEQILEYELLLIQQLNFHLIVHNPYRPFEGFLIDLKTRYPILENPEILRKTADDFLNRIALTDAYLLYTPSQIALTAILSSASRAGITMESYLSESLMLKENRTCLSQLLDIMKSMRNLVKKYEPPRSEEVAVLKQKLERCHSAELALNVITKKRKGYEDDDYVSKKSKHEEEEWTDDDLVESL
Sequence of CDK7 CCNH MNAT1 (human) (P51948 whole entry, looked up): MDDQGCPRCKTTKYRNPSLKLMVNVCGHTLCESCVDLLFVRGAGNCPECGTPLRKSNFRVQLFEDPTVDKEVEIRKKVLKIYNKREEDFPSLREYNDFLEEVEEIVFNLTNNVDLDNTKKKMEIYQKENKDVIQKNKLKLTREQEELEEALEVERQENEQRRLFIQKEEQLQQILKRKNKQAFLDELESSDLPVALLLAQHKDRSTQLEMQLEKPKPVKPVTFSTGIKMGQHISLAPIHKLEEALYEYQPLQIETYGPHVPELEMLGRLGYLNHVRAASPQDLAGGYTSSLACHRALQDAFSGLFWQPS
Sequence of CDK2 CCNE1 (human) (P24864 whole entry, looked up, other chains not shown): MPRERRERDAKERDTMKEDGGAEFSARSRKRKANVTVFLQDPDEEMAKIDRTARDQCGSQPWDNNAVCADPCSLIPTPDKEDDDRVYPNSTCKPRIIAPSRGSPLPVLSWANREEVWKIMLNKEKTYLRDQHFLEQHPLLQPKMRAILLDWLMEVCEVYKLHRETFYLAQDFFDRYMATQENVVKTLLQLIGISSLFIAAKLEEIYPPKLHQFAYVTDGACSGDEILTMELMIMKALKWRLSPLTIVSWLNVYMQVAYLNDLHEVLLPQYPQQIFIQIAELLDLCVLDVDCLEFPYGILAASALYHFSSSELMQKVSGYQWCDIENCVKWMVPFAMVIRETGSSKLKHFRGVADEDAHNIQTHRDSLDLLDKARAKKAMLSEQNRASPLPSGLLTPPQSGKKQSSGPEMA
Sequence of AURKB (human) (Q96GD4 whole entry, looked up): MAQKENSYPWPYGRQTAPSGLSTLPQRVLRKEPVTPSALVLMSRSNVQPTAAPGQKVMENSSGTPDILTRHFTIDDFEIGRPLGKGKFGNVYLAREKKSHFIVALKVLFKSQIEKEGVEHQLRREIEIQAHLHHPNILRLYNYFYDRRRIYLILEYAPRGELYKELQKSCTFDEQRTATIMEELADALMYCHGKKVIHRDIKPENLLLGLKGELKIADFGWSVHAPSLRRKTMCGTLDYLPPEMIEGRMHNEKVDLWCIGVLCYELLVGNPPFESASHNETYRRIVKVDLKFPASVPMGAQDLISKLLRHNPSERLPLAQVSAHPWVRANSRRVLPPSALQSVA
Sequence of TSSK1B (human) (Q9BXA7 whole entry, looked up): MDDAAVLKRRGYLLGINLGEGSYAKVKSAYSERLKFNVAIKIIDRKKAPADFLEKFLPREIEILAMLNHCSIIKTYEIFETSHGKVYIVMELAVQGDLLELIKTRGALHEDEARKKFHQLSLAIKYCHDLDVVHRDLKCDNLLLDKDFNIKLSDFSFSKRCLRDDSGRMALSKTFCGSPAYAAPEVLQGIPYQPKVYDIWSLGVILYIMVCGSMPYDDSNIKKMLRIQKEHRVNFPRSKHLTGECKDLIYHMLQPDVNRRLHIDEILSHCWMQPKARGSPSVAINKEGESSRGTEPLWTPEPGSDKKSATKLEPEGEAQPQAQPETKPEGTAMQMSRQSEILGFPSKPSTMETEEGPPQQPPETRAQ

With `COC(=O)[C@]1(O)C[C@@H]2O[C@@]1(C)n1c3ccccc3c3c4c(c5c6ccccc6n2c5c31)C(=O)NC4` the residual activity [1] was -1%, the residual activity (PRKCA (human)) was 0% and the residual activity [2] was -1%. It also gave a residual activity (MELK (human)) of -1%, a residual activity (PIM2 (human)) of -2% and a residual activity (MAP3K9 (human)) of 0%. For the same molecule, the residual activity (MKNK2 (human); compound 1.0 µM) was 0%, the residual activity (MKNK2 (human); compound 10.0 µM) was 0% and the residual activity (MARK2 (human)) was -2%. For the same molecule, the residual activity (TBK1 (human)) was -1%, the residual activity (PRKD2 (human)) was 0% and the residual activity (STK33 (human)) was 0%. For the same molecule, the residual activity (MAPK3 (human)) was -1%, the residual activity (CDK1 CCNB1 (human)) was -1% and the residual activity (EPHA1 (human)) was 0%. It also gave a residual activity (RPS6KA2 KD1 KD2 (human)) of 0%, a residual activity (STK24 (human)) of 0% and a residual activity (MTOR FKBP1A (human); compound 1.0 µM) of 89%. The residual activity (MTOR FKBP1A (human); compound 10.0 µM) was 79%, the residual activity (TLK2 (human)) was 0% and the residual activity (MAPK10 (human); compound 1.0 µM) was -3%. It also gave a residual activity (MAPK10 (human); compound 10.0 µM) of -1%, a residual activity (GCK (human)) of 0% and a residual activity [3] of 0%. The residual activity (TSSK1B (human); compound 1.0 µM) was -1%, the residual activity (TSSK1B (human); compound 10.0 µM) was 0% and the residual activity (FYN (human)) was 0%. It also gave a residual activity (PAK4 (human)) of 0%, a residual activity (DYRK2 (human)) of -4% and a residual activity (MINK1 (human)) of 0%. The residual activity ([4]; compound 1.0 µM) was 0%, the residual activity ([4]; compound 10.0 µM) was 0% and the residual activity (CDK7 CCNH MNAT1 (human); compound 1.0 µM) was 55%. For the same molecule, the residual activity (CDK7 CCNH MNAT1 (human); compound 10.0 µM) was 16%, the residual activity (CDK2 CCNE1 (human); compound 1.0 µM) was 6% and the residual activity (CDK2 CCNE1 (human); compound 10.0 µM) was 0%. It also gave a residual activity (FER (human)) of 0%, a residual activity (ACVR1B (human)) of 0% and a residual activity (CAMK1D (human)) of 0%. It also gave a residual activity (BTK (human); compound 1.0 µM) of -1%, a residual activity (BTK (human); compound 10.0 µM) of -1% and a residual activity (AURKB (human); compound 1.0 µM) of 0%. The residual activity (AURKB (human); compound 10.0 µM) was 0%, the residual activity (HIPK3 (human)) was -4% and the residual activity (INSR (human)) was 0%.
